# Results taken from patent US4558007A, “Process for detecting LDHk isozyme activity in human serum for use as a diagnostic aid and for monitoring response to cancer therapy” (Health Research, Inc. (Roswell Park Divison), priority 1983, dated 1985).
# How the values were obtained:
# LDHk [1] = settings: background description of the isozyme; cited from earlier work
# LDHk [2] = experiment: Inhibition of LDHk by dinucleoside tetraphosphates; format: biochemical; settings: for Mode of inhibition of LDHk versus NAD+: competition with NAD+; for Ki: property shared by LDHk from cells transformed by Ki-MSV, human tumors, human liver, rat retina
# [3] = test system: LDHk detected in human tumor tissues; settings: Anderson et al. 1981 study of human carcinomas; cited from earlier work
# human serum LDHk = experiment: Inhibition of serum LDHk (gel lanes stained in presence of inhibitor); format: biochemical; settings: 3×10^-5 M in staining mixture, 4 1/2 hours
# Experimental: A reverse polarity gel system was used to isolate the LDHk isozyme which has a positive charge at pH 8.9 and migrates towards the cathode. The gel system was based on an imidazole/borate buffer system. The samples were analyzed on 3 mm thick, 20 well, 5.5% polyacrylamide slab gels photopolymerized with a riboflavin catalyst in the absence of persulfate. The gels were cast with a 0.15M potassium tetraborate buffer at pH 8.3. The lower reservoir buffer was 0.10M potassium tetraborate, pH 8.3, and the upper reservoir buffer contained 0.08M imidazole and 0.02M boric acid, pH 8.9. Gels were run an average of 16 hours at a voltage of 220 V, with cooling provided by circulating ice water.
# Staining was done using the nitroblue tetrazolium/phenazine methosulfate composition of Dietz and Lubrano as described previously using 1M Tris buffer, pH 8.0. The staining mixture was supplemented with 2% glycerol to complex with the borate ions. These gels were stained in the dar at a temperature of about 37° C. for 41/2 hours in an Ehrlenmeyer suction flask under a nitrogen atmosphere. After staining, the gels were fixed, scanned to measure the amount of stain, and stored as described above.
# An inhibition experiment was conducted on the serum LDHk. […]
Structure (SMILES),Inhibition of LDHk (LDHk [1]),Mode of inhibition of LDHk versus NAD+ (LDHk [2]),Ki (LDHk [2]),Inhibition of LDHk of human tumor tissues [3],Inhibition of human serum LDHk activity (human serum LDHk)
"Nc1nc2c(ncn2[C@@H]2O[C@H](COP(=O)(O)OP(=O)(O)OP(=O)(O)OP(=O)(O)OC[C@H]3O[C@@H](n4cnc5c(=O)[nH]c(N)nc54)[C@H](O)[C@@H]3O)[C@@H](O)[C@H]2O)c(=O)[nH]1 [diguanosine tetraphosphate, 5',5' diguanosine tetraphosphate]",more strongly,not competitive,~50 µM,,
"Nc1nc2c(ncn2[C@@H]2O[C@H](COP(=O)(O)OP(=O)(O)OP(=O)(O)O)[C@@H](O)[C@H]2O)c(=O)[nH]1 [GTP, guanosine triphosphate]",inhibited,,,inhibited,
"Nc1ncnc2c1ncn2[C@@H]1O[C@H](COP(=O)(O)OP(=O)(O)OP(=O)(O)OP(=O)(O)OC[C@H]2O[C@@H](n3cnc4c(N)ncnc43)[C@H](O)[C@@H]2O)[C@@H](O)[C@H]1O [diadenosine tetraphosphate, 5',5' diadenosine tetraphosphate]",more strongly,not competitive,~50 µM,,not inhibited
